Organism: Rattus norvegicus
Experiment: Open TG-GATES - Regimen: Single
Assay type: toxicity, organism-based, Sprague-Dawley
Design: regimen Single, gender Male, age 6 weeks
Settings: in vivo, po, route gavage; for Hb / Ht / Lym / MCH / MCHC / MCV / Mono / Neu / PT / Plat / RBC / Ret / WBC / APTT / Bas / Eos / Fbg: tissue Blood; for KIDNEY_L / KIDNEY_R / KIDNEY_TOTAL: tissue Kidney; for LIVER: tissue Liver; for ALP / ALT / AST / BUN / CRE / Ca / Cl / DBIL / GLC / IP / K / LDH / Na / PL / RALB / TBIL / TC / TP / gamma-GTP: tissue Plasma
[1] = 50 mg/kg, 6 h, dose level Middle
[2] = 50 mg/kg, 9 h, dose level Middle
[3] = 50 mg/kg, 24 h, dose level Middle
[4] = 150 mg/kg, 3 h, dose level High
[5] = 150 mg/kg, 6 h, dose level High
[6] = 150 mg/kg, 9 h, dose level High
[7] = 150 mg/kg, 24 h, dose level High

O=P1(N(CCCl)CCCl)NCCCO1 (configuration not stated) [CYCLOPHOSPHAMIDE ANHYDROUS]
Hb [1]: 12.8 g/dL
Ht [1]: 37.8%
Lym [1]: 73.2%
MCH [1]: 21.1 pg
MCHC [1]: 33.7%
MCV [1]: 62.7 fL
Mono [1]: 2.6%
Neu [1]: 22.8%
PT [1]: 14.2 s
Plat [1]: 115.3 x10_4/uL
RBC [1]: 603.6 x10_4/ul
Ret [1]: 8.9%
WBC [1]: 84.9 x10_2/uL
KIDNEY_L [1]: 0.9 g
KIDNEY_R [1]: 0.8 g
KIDNEY_TOTAL [1]: 1.7 g
LIVER [1]: 7.5 g
ALP [1]: 1677 IU/L
ALT [1]: 35 IU/L
AST [1]: 72.8 IU/L
BUN [1]: 9.6 mg/dL
CRE [1]: 0.2 mg/dL
Ca [1]: 10.9 mg/dL
Cl [1]: 106.2 meq/L
DBIL [1]: 0.016 mg/dL
GLC [1]: 171.6 mg/dL
IP [1]: 9.9 mg/dL
K [1]: 4.4 meq/L
LDH [1]: 65 IU/L
Na [1]: 141.4 meq/L
PL [1]: 134 mg/dL
RALB [1]: 2.5 g/dL
TBIL [1]: 0.064 mg/dL
TC [1]: 72.2 mg/dL
TP [1]: 5.4 g/dL
gamma-GTP [1]: 1.4 IU/L
TERMINAL_BW [2]: 187.4 g
APTT [2]: 17.8 s
Bas [2]: 0%
Eos [2]: 1%
Fbg [2]: 284.8 mg/dL
Hb [2]: 12.7 g/dL
Ht [2]: 37.5%
Lym [2]: 76%
MCH [2]: 20.9 pg
MCHC [2]: 33.8%
MCV [2]: 61.8 fL
Mono [2]: 2%
Neu [2]: 21%
PT [2]: 14.1 s
Plat [2]: 112.4 x10_4/uL
RBC [2]: 606.8 x10_4/ul
Ret [2]: 9.1%
WBC [2]: 56.3 x10_2/uL
KIDNEY_L [2]: 0.8 g
KIDNEY_R [2]: 0.8 g
KIDNEY_TOTAL [2]: 1.7 g
LIVER [2]: 7.1 g
ALP [2]: 1578.4 IU/L
ALT [2]: 28.4 IU/L
AST [2]: 67.4 IU/L
BUN [2]: 9.6 mg/dL
CRE [2]: 0.2 mg/dL
Ca [2]: 10.6 mg/dL
Cl [2]: 106.8 meq/L
DBIL [2]: 0.016 mg/dL
GLC [2]: 177.2 mg/dL
IP [2]: 10.7 mg/dL
K [2]: 4.1 meq/L
LDH [2]: 55.4 IU/L
Na [2]: 142.8 meq/L
PL [2]: 125.4 mg/dL
RALB [2]: 2.5 g/dL
TBIL [2]: 0.066 mg/dL
TC [2]: 73.8 mg/dL
TP [2]: 5.3 g/dL
gamma-GTP [2]: 1.6 IU/L
TERMINAL_BW [3]: 200.3 g
APTT [3]: 24.4 s
Bas [3]: 0%
Eos [3]: 1%
Fbg [3]: 285.8 mg/dL
Hb [3]: 13 g/dL
Ht [3]: 38.7%
Lym [3]: 80.8%
MCH [3]: 20.8 pg
MCHC [3]: 33.5%
MCV [3]: 62 fL
Mono [3]: 2.4%
Neu [3]: 15.4%
PT [3]: 14.5 s
Plat [3]: 114 x10_4/uL
RBC [3]: 624.4 x10_4/ul
Ret [3]: 5.5%
WBC [3]: 30.3 x10_2/uL
KIDNEY_L [3]: 0.9 g
KIDNEY_R [3]: 0.9 g
KIDNEY_TOTAL [3]: 1.8 g
LIVER [3]: 8.4 g
ALP [3]: 1583 IU/L
ALT [3]: 36.8 IU/L
AST [3]: 68.8 IU/L
BUN [3]: 14 mg/dL
CRE [3]: 0.2 mg/dL
Ca [3]: 11 mg/dL
Cl [3]: 106 meq/L
DBIL [3]: 0.026 mg/dL
GLC [3]: 176.4 mg/dL
IP [3]: 8.3 mg/dL
K [3]: 4.4 meq/L
LDH [3]: 101.8 IU/L
Na [3]: 140.4 meq/L
PL [3]: 143.2 mg/dL
RALB [3]: 2.5 g/dL
TBIL [3]: 0.066 mg/dL
TC [3]: 79.4 mg/dL
TP [3]: 5.4 g/dL
gamma-GTP [3]: 1 IU/L
TERMINAL_BW [4]: 193.2 g
APTT [4]: 16.8 s
Bas [4]: 0%
Eos [4]: 0.8%
Fbg [4]: 274.6 mg/dL
Hb [4]: 12.8 g/dL
Ht [4]: 38.2%
Lym [4]: 77.6%
MCH [4]: 21.2 pg
MCHC [4]: 33.3%
MCV [4]: 63.5 fL
Mono [4]: 2.8%
Neu [4]: 18%
PT [4]: 14 s
Plat [4]: 118.8 x10_4/uL
RBC [4]: 602 x10_4/ul
Ret [4]: 9.4%
WBC [4]: 95.6 x10_2/uL
KIDNEY_L [4]: 0.9 g
KIDNEY_R [4]: 0.9 g
KIDNEY_TOTAL [4]: 1.7 g
LIVER [4]: 8 g
ALP [4]: 1465.2 IU/L
ALT [4]: 33.2 IU/L
AST [4]: 72 IU/L
BUN [4]: 11.2 mg/dL
CRE [4]: 0.2 mg/dL
Ca [4]: 10.9 mg/dL
Cl [4]: 105.2 meq/L
DBIL [4]: 0.018 mg/dL
GLC [4]: 176 mg/dL
IP [4]: 8.6 mg/dL
K [4]: 4.1 meq/L
LDH [4]: 75.6 IU/L
Na [4]: 140 meq/L
PL [4]: 136.8 mg/dL
RALB [4]: 2.5 g/dL
TBIL [4]: 0.064 mg/dL
TC [4]: 71 mg/dL
TP [4]: 5.3 g/dL
gamma-GTP [4]: 1 IU/L
TERMINAL_BW [5]: 185.5 g
APTT [5]: 17.1 s
Bas [5]: 0%
Eos [5]: 1%
Fbg [5]: 284.8 mg/dL
Hb [5]: 13.2 g/dL
Ht [5]: 39.4%
Lym [5]: 71.4%
MCH [5]: 20.6 pg
MCHC [5]: 33.6%
MCV [5]: 61.3 fL
Mono [5]: 2.4%
Neu [5]: 25%
PT [5]: 14.2 s
Plat [5]: 119.4 x10_4/uL
RBC [5]: 643 x10_4/ul
Ret [5]: 9%
WBC [5]: 86.7 x10_2/uL
KIDNEY_L [5]: 0.8 g
KIDNEY_R [5]: 0.8 g
KIDNEY_TOTAL [5]: 1.7 g
LIVER [5]: 6.9 g
ALP [5]: 1365.8 IU/L
ALT [5]: 34.8 IU/L
AST [5]: 76.8 IU/L
BUN [5]: 12 mg/dL
CRE [5]: 0.2 mg/dL
Ca [5]: 10.8 mg/dL
Cl [5]: 107 meq/L
DBIL [5]: 0.012 mg/dL
GLC [5]: 184.4 mg/dL
IP [5]: 10.2 mg/dL
K [5]: 4.5 meq/L
LDH [5]: 64.8 IU/L
Na [5]: 143.2 meq/L
PL [5]: 138.8 mg/dL
RALB [5]: 2.5 g/dL
TBIL [5]: 0.062 mg/dL
TC [5]: 77.4 mg/dL
TP [5]: 5.5 g/dL
gamma-GTP [5]: 1.2 IU/L
TERMINAL_BW [6]: 190.2 g
APTT [6]: 16.2 s
Bas [6]: 0%
Eos [6]: 0.8%
Fbg [6]: 293.4 mg/dL
Hb [6]: 13.1 g/dL
Ht [6]: 39.2%
Lym [6]: 79.4%
MCH [6]: 20.5 pg
MCHC [6]: 33.5%
MCV [6]: 61.1 fL
Mono [6]: 1.8%
Neu [6]: 17.8%
PT [6]: 14 s
Plat [6]: 117.6 x10_4/uL
RBC [6]: 642.6 x10_4/ul
Ret [6]: 8.1%
WBC [6]: 50.7 x10_2/uL
KIDNEY_L [6]: 0.8 g
KIDNEY_R [6]: 0.8 g
KIDNEY_TOTAL [6]: 1.7 g
LIVER [6]: 7.2 g
ALP [6]: 1219.4 IU/L
ALT [6]: 26.2 IU/L
AST [6]: 67.6 IU/L
BUN [6]: 13 mg/dL
CRE [6]: 0.2 mg/dL
Ca [6]: 10.7 mg/dL
Cl [6]: 106.6 meq/L
DBIL [6]: 0.014 mg/dL
GLC [6]: 185.2 mg/dL
IP [6]: 10.5 mg/dL
K [6]: 4.2 meq/L
LDH [6]: 57.8 IU/L
Na [6]: 142.6 meq/L
PL [6]: 136.6 mg/dL
RALB [6]: 2.6 g/dL
TBIL [6]: 0.066 mg/dL
TC [6]: 78.2 mg/dL
TP [6]: 5.4 g/dL
gamma-GTP [6]: 1.4 IU/L
TERMINAL_BW [7]: 187.2 g
APTT [7]: 16.8 s
Bas [7]: 0.2%
Eos [7]: 1.4%
Fbg [7]: 285.2 mg/dL
Hb [7]: 13.3 g/dL
Ht [7]: 39%
Lym [7]: 63.8%
MCH [7]: 21 pg
MCHC [7]: 34.1%
MCV [7]: 61.6 fL
Mono [7]: 2.8%
Neu [7]: 31.8%
PT [7]: 14.3 s
Plat [7]: 100.5 x10_4/uL
RBC [7]: 634 x10_4/ul
Ret [7]: 5%
WBC [7]: 18 x10_2/uL
KIDNEY_L [7]: 0.9 g
KIDNEY_R [7]: 0.9 g
KIDNEY_TOTAL [7]: 1.8 g
LIVER [7]: 7.4 g
ALP [7]: 1374 IU/L
ALT [7]: 27.8 IU/L
AST [7]: 67.8 IU/L
BUN [7]: 17 mg/dL
CRE [7]: 0.2 mg/dL
Ca [7]: 10.5 mg/dL
Cl [7]: 107 meq/L
DBIL [7]: 0.02 mg/dL
GLC [7]: 178.8 mg/dL
IP [7]: 9 mg/dL
K [7]: 4.6 meq/L
LDH [7]: 55.2 IU/L
Na [7]: 142 meq/L
PL [7]: 138.2 mg/dL
RALB [7]: 2.5 g/dL
TBIL [7]: 0.068 mg/dL
TC [7]: 86.2 mg/dL
TP [7]: 5.3 g/dL
gamma-GTP [7]: 1 IU/L
